≈ marks a conversion by molar mass, not a printed value.

For assay [1], the target named is Cyclin-dependent kinase 2/cyclin E (Homo sapiens, UniProt P24941). Put plainly: Inhibition of CDK2/cyclin E (unknown origin). Format: protein-complex assay.
Assay [2] relates to K562. Put plainly: Antiproliferative activity against human K562 cells assessed as inhibition of cell growth measured after 72 hrs by fluorescence based assay. The following applies: K562, 72 h. Format: functional.
The test system of assay [3] is MCF7. The assay is described as follows: Antiproliferative activity against human MCF7 cells assessed as inhibition of cell growth measured after 72 hrs by fluorescence based assay. Format: functional. The following applies: MCF7, 72 h.
Assay [4] deals with SCC-7. The assay is described as follows: Anticlonogenic activity against mouse SCC-7 cells assessed as inhibition of colony formation under hypoxic condition by clonogenic survival assay. Format: functional.
Assay [5] deals with HT-29. Put plainly: Antiproliferative activity against human HT-29 cells assessed as inhibition of cell growth under hypoxia condition by SRB assay. Format: functional, cell-based.
Assay [6] relates to SCC-7. Put plainly: Anticlonogenic activity against mouse SCC-7 cells assessed as inhibition of colony formation under aerobic condition by clonogenic survival assay. Format: functional.
Assay [7] concerns HT-29. The assay is described as follows: Antiproliferative activity against human HT-29 cells assessed as inhibition of cell growth under normoxia condition by SRB assay. Format: functional, cell-based. In general terms: The SRB assay estimates cell density from bound dye.
Assay [8] addresses Tyrosine-protein kinase JAK2 (Homo sapiens, UniProt O60674). The assay is described as follows: Inhibition of JAK2 (unknown origin).
In assay [9] the target is T1, Tyrosine-protein kinase JAK3 (Homo sapiens, UniProt P52333).
T1 sequence (P52333 whole entry): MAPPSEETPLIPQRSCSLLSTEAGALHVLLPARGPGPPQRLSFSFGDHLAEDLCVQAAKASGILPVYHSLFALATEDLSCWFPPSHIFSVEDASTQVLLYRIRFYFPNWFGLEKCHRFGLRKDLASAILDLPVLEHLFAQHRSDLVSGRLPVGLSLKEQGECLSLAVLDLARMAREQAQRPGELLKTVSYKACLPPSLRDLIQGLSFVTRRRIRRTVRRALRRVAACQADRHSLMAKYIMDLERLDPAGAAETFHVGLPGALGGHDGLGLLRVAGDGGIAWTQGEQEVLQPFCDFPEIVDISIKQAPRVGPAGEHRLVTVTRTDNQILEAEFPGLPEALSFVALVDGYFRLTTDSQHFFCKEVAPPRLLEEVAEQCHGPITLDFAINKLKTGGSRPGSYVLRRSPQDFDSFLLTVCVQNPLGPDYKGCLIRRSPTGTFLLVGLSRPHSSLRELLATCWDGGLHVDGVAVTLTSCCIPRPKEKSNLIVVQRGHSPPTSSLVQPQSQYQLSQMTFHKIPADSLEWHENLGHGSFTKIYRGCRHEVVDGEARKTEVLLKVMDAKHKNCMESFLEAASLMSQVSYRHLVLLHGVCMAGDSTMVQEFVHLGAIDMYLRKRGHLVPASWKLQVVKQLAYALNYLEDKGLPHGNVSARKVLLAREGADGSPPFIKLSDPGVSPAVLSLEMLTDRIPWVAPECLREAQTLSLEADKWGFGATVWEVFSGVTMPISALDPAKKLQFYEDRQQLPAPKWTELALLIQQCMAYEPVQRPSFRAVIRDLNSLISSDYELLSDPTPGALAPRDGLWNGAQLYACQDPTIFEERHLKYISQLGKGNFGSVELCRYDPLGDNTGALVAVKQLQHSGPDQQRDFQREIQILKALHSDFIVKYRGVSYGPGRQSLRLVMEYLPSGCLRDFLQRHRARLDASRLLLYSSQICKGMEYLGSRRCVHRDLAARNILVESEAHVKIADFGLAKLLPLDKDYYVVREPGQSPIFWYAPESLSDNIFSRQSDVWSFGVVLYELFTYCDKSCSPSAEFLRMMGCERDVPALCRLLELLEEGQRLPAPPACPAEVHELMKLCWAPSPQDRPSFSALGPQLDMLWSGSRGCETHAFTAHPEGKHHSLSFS
The assay is described as follows: Inhibition of JAK3 (unknown origin).

The subject of assay [10] is HCT-116. Put plainly: Antiproliferative activity against human HCT-116 cells assessed as inhibition of cell growth. Format: functional, cell-based.
Assay [11] relates to MCF7. Put plainly: Antiproliferative activity against human MCF7 cells assessed as inhibition of cell growth. Format: functional, cell-based.

Tyrosine-protein kinase JAK2, sequence (O60674 whole entry): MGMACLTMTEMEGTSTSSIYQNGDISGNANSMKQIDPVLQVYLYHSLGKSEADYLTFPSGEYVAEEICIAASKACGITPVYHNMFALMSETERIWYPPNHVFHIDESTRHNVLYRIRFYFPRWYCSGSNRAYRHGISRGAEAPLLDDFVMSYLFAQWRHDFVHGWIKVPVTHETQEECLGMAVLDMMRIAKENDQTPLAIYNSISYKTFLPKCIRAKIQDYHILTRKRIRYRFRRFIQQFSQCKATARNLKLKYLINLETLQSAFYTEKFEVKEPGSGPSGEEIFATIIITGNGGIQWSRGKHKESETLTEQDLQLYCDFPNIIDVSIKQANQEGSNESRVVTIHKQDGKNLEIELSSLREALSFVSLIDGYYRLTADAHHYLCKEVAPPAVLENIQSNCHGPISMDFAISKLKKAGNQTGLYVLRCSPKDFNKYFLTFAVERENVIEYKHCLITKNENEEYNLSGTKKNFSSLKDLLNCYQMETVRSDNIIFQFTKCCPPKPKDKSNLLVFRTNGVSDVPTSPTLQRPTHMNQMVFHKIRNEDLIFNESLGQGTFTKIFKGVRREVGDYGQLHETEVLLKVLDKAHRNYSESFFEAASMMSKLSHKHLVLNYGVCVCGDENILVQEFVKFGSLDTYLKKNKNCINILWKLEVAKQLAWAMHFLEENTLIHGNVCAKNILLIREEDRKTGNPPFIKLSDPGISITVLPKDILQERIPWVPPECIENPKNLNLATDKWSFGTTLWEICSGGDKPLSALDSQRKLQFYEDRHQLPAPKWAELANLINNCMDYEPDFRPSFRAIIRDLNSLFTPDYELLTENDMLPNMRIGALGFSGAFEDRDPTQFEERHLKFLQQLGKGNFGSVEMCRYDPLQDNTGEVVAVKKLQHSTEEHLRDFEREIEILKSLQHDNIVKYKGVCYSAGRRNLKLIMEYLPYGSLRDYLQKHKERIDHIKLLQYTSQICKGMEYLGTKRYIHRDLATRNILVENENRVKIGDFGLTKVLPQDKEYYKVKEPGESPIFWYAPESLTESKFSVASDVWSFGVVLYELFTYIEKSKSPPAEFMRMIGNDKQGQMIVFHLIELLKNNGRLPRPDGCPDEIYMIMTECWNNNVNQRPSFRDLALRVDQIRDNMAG

As a reminder, the IC50 is the concentration that inhibits the measured activity by half. On to `Fc1ccc(-c2nnc(-n3cn[nH]c3=S)nc2-c2ccc(F)cc2)cc1`, for which the IC50 in [1] was 10.9 µM.

Consider `O=c1nc(NNc2ccccc2)c(-c2ccccc2O)nn1-c1ccccc1`, for which the IC50 in assay [2] and in assay [3] was 3.5 µM in each case.

Regarding `CN(CCCNC(=O)c1cccc2cc3ccccc3nc12)CCCNc1n[n+]([O-])c2ccccc2[n+]1[O-]`, the results for the C10 in [4] and in [6] were 0.18 µM and 6.4 µM, respectively. Further, the IC50 in assay [5] was found to be 0.016 µM; in [7], 0.6 µM.

Consider `Cc1cccc2nc3cccc(C(=O)NCCCN(C)CCCNc4n[n+]([O-])c5ccccc5[n+]4[O-])c3nc12`, for which the values for the C10 in [4] and in assay [6] were 0.18 µM and 6.4 µM, respectively. Moreover, the concentration for half-maximal inhibition (IC50) worked out at 0.016 µM in [5] and 0.6 µM in [7].

For the molecule `CC(Nc1cnnc(-c2c[nH]c3ncc(C#N)cc23)n1)C(=O)NCC(C)(C)C` (centres undefined), the IC50 in assay [8] and in assay [9] was at most 0.01 µM throughout.

Turning to `CC(C)C(Nc1cnnc(-c2c[nH]c3ncc(F)cc23)n1)C(=O)NCC(C)(C)C` (centres undefined), the IC50 in assay [8] and in [9] was at most 0.01 µM throughout.

For `CSC1NN=C(c2cc(F)ccc2NC(=O)c2ccc(F)cc2)C(=O)N1` (centres undefined), half-maximal inhibition in assay [1] (IC50) required 3.8 µM.

For `CNc1nc(=O)n(-c2ccccc2)nc1-c1ccccc1O`, the IC50 in assay [2] and in assay [3] was 3.5 µM in each case.

Take `Cc1cccc2cc3cccc(C(=O)NCCCN(C)CCCNc4n[n+]([O-])c5ccccc5[n+]4[O-])c3nc12`: the C10 in assay [4] was determined as 0.18 µM; in [6] it was 6.4 µM. Besides, the IC50 amounted to 0.016 µM in [5] and 0.6 µM in assay [7].

Take `NC(CCCCNc1nc(=O)n(-c2ccccc2)nc1-c1ccccc1O)C(=O)O` (centres undefined): the IC50 in [2] and in [3] was 3.5 µM in each case.

For the molecule `NCCNc1nc(=O)n(-c2ccccc2)nc1-c1ccccc1O`, the IC50 in assay [2] and in assay [3] was 3.5 µM in each case.

In the case of `O=c1nc(N2CCCCC2)c(-c2ccccc2O)nn1-c1ccccc1`, the IC50 in assay [2] and in assay [3] was 3.5 µM throughout.

Take `CC(C)C(Nc1cnnc(-c2c[nH]c3ncc(C#N)cc23)n1)C(=O)NCC(C)(C)C` (centres undefined): the IC50 in assay [8] and in [9] was at most 0.01 µM in each case.

In the case of `COc1cc(Cc2nc(-c3ccccc3)nn3cnnc23)cc(OC)c1OC`, the IC50 in assay [10] was determined as 0.74 µg/mL; in assay [11], 0.74 µg/mL (≈ 1.96 µM).

On to `COc1cc(Cc2nc(-c3ccc(Cl)cc3)nn3c(=S)[nH]nc23)cc(OC)c1OC`, for which the IC50 is 0.74 µg/mL in assay [10] and 0.74 µg/mL (≈ 1.67 µM) in assay [11].

`CC(C)(C)CNC(=O)C(C)(C)Nc1cnnc(-c2c[nH]c3ncc(F)cc23)n1`: the IC50 in assay [8] and in assay [9] was at most 0.01 µM each time.

As to `CN1CCN(CC(=O)Nc2cc(C(=O)Nc3ncc(-c4ccccc4)nn3)ccc2OC(F)(F)F)CC1`, the IC50 in assay [10] was determined as 0.016 µM.

For `Fc1ccc(-c2nnc(-n3c(=S)[nH][nH]c3=S)nc2-c2ccc(F)cc2)cc1`, half-maximal inhibition in assay [1] (IC50) was put at 9.99 µM.

As for `CC(C)(C)CNC(=O)C(C)(C)Nc1cnnc(-c2c[nH]c3ncc(C#N)cc23)n1`, the IC50 in [8] and in [9] was at most 0.01 µM each time.

Regarding `CN(CCCNC(=O)c1cccc2nc3ccccc3nc12)CCCNc1n[n+]([O-])c2ccccc2[n+]1[O-]`, the C10 in assay [4] is 0.18 µM; in [6], 6.4 µM. Further, the IC50 in assay [5] amounted to 0.016 µM; in [7] it was 0.6 µM.

With `NCCCCNc1nc(=O)n(-c2ccccc2)nc1-c1ccccc1O`, the IC50 in assay [2] and in [3] was 3.5 µM each time.

`CC(C)(C)CNC(=O)C(C)(C)Nc1cnnc(-c2c[nH]c3ncc(C(N)=O)cc23)n1`: the IC50 in assay [8] and in [9] was at most 0.01 µM throughout.

Take `O=c1nc(Nc2ccccc2)c(-c2ccccc2O)nn1-c1ccccc1`: the IC50 in assay [2] and in assay [3] was 3.5 µM in each case.

Turning to `NNC(=S)Nc1nnc(-c2ccc(F)cc2)c(-c2ccc(F)cc2)n1`, in assay [1], 11.2 µM corresponded to half-maximal inhibition (IC50).

For the molecule `O=C(NCCOCCNc1n[n+]([O-])c2ccccc2[n+]1[O-])c1cccc2cc3ccccc3nc12`, the C10 in assay [4] was determined as 0.18 µM; in [6], 6.4 µM. In addition, the figures for the IC50 in assay [5] and in [7] were 0.016 µM and 0.6 µM, respectively.

Regarding `NC(=O)NNc1nc(=O)n(-c2ccccc2)nc1-c1ccccc1O`, the IC50 in assay [2] and in assay [3] was 3.5 µM in each case.

As for `Cc1n[nH]c(=S)n(-c2nnc(-c3ccc(F)cc3)c(-c3ccc(F)cc3)n2)c1=O`, in assay [1], half-maximal inhibition (IC50) required 9.75 µM.

For the molecule `COc1cc(-c2csc3nnc(-c4ccc(Cl)cc4)nc23)cc(OC)c1OC`, the IC50 was 0.74 µg/mL in [10] and 0.74 µg/mL (≈ 1.79 µM) in assay [11].

Take `CC(C)C(Nc1cnnc(-c2c[nH]c3ncc(Cl)cc23)n1)C(=O)NCC(C)(C)C` (centres undefined): the IC50 in [8] and in [9] was at most 0.01 µM in each case.

In assay [1], `CNc1ccc(F)cc1C1=NNC(SC)NC1=O` (centres undefined) registered an IC50 of 5 µM.

Turning to `NNc1nc(=O)n(-c2ccccc2)nc1-c1ccccc1O`, the IC50 in [2] and in assay [3] was 3.5 µM in each case.

As to `O=c1nc(NCCCCCCNc2nc(=O)n(-c3ccccc3)nc2-c2c(O)ccc3ccccc23)c(-c2c(O)ccc3ccccc23)nn1-c1ccccc1`, the IC50 in [2] and in assay [3] was 3.5 µM each time.

Take `CN(CCNC(=O)c1cccc2cc3ccccc3nc12)CCNc1n[n+]([O-])c2ccccc2[n+]1[O-]`: the C10 in assay [4] came to 0.18 µM; in assay [6], 6.4 µM. Besides, the IC50 in assay [5] was 0.016 µM; in [7], 0.6 µM.

In the case of `O=C(NCCNCCNc1n[n+]([O-])c2ccccc2[n+]1[O-])c1cccc2cc3ccccc3nc12`, the C10 in assay [4] is 0.18 µM; in assay [6], 6.4 µM. For the same molecule, the IC50 in assay [5] is 0.016 µM; in assay [7], 0.6 µM.

As to `Nc1ccc(F)cc1C1=NNC(S)NC1=O` (centres undefined), in assay [1], the IC50 came out at 3.8 µM.

Turning to `O=c1nc(NCCCCCN(CCCNc2nc(=O)n(-c3ccccc3)nc2-c2ccccc2O)c2nc(=O)n(-c3ccccc3)nc2-c2ccccc2O)c(-c2ccccc2O)nn1-c1ccccc1`, the IC50 in assay [2] and in assay [3] was 3.5 µM in each case.

For `COc1cnc2[nH]cc(-c3nncc(NC(C(=O)NCC(C)(C)C)C(C)C)n3)c2c1` (centres undefined), the IC50 in assay [8] and in [9] was at most 0.01 µM in each case.

`O=C(NCCCNCCCNc1n[n+]([O-])c2ccccc2[n+]1[O-])c1cccc2cc3ccccc3nc12`: the results for the C10 in assay [4] and in assay [6] were 0.18 µM and 6.4 µM, respectively. For the same molecule, the values for the IC50 in assay [5] and in assay [7] were 0.016 µM and 0.6 µM, respectively.

Take `Nc1nc(=O)n(-c2ccccc2)nc1-c1ccccc1O`: the IC50 in assay [2] and in [3] was 3.5 µM each time.

For the molecule `CC(Nc1cnnc(-c2c[nH]c3ncc(C(N)=O)cc23)n1)C(=O)NCC(C)(C)C` (centres undefined), the IC50 in [8] and in assay [9] was at most 0.01 µM throughout.

For the molecule `CCN(CC)c1nc(=O)n(-c2ccccc2)nc1-c1ccccc1O`, the IC50 in [2] and in assay [3] was 3.5 µM each time.

Turning to `CN(CCCNC(=O)c1cccc2ccc(-c3ccncc3)nc12)CCCNc1n[n+]([O-])c2ccccc2[n+]1[O-]`, the C10 in assay [4] worked out at 0.18 µM; in assay [6], 6.4 µM. Moreover, the IC50 is 0.016 µM in assay [5] and 0.6 µM in [7].

Take `O=C1NC(SSC2NN=C(c3cc(F)ccc3NC(=O)c3ccc(F)cc3)C(=O)N2)NN=C1c1cc(F)ccc1NC(=O)c1ccc(F)cc1` (centres undefined): the midpoint of inhibition in assay [1], the IC50, lay at 3.8 µM.

On to `CN(CCCNC(=O)c1cccc2cccnc12)CCCNc1n[n+]([O-])c2ccccc2[n+]1[O-]`, for which the C10 came to 0.18 µM in assay [4] and 6.4 µM in [6]. Also, the IC50 in assay [5] came out at 0.016 µM; in [7], 0.6 µM.

On to `Nc1ccc(F)cc1C1=NNC(Nc2ccc(F)cc2)NC1=O` (centres undefined), for which, in [1], it took 3.8 µM to reach half-maximal inhibition (IC50).

Consider `O=c1nc(NC2CCCCC2)c(-c2ccccc2O)nn1-c1ccccc1`, for which the IC50 in [2] and in assay [3] was 3.5 µM in each case.

`CC(C)C(Nc1cnnc(-c2c[nH]c3ncc(C(N)=O)cc23)n1)C(=O)NCC(C)(C)C` (centres undefined): the IC50 in [8] and in [9] was at most 0.01 µM in each case.
